Test results: article PMC11343806 (Journal of Biological Inorganic Chemistry, 2024)
Like-named read-outs stand apart in the source and are kept apart here.

Key:
[1] = target: T1, bacterial TrxR from E. coli (Escherichia coli, UniProt P0A9P4); assay: Inhibition of bacterial TrxR (E. coli), DTNB/5-TNB assay; assay type: biochemical; settings: purified enzyme, 75 min incubation at 25 °C; means and standard deviations
T1 construct: purchased Sigma-Aldrich
Method: The TrxR (E.coli) inhibition assay was performed according to a previously published procedure. It is partly based on the procedure developed by Lu et al.[35] and detects the formation of 5-TNB (5-thionitrobenzoic acid). Solutions of E. coli TrxR (35.4 U/mL) and of its substrate thioredoxin (Trx) E. coli (156 µg/mL) (both purchased from Sigma-Aldrich and diluted with distilled water) and fresh stock solutions of the test compounds (in DMF) were prepared (1c was administered as suspension). TE buffer (Tris–HCl 50 mM, EDTA 1 mM, pH 7.5) containing graded concentrations of the respective compounds (20 µL) or buffer without compounds (20 µL, as control) were mixed with TrxR solution (10 µL), Trx solution (10 µL), and a solution of NADPH (200 µM) in TE buffer (100 µL) in a well on a 96-well plate. As blank solution, 200 µM NADPH in TE buffer (100 µL) mixed with a DMF/buffer mixture (40 µL) was used (final concentrations of DMF: 0.5% v/v). The solutions on the 96-well plate were incubated for 75 min at 25 °C with moderate shaking. A volume of 100 µL of a reaction mixture (TE buffer containing 200 µM NADPH and 5 mM DTNB) was added to each well to initiate the reaction. After thorough mixing, the formation of 5-TNB was monitored by a microplate reader at 405 nm in 35 s intervals (10 measurements). The values were corrected by subtraction of the values for the blank solution. The increase in concentration of 5-TNB followed a linear trend (r^2 ≥ 0.990) and the enzymatic activities were calculated as the gradients (increase in absorbance per second) thereof. Absence of interference with the assay components was confirmed by a negative control experiment for each test compound. The highest test compound concentration was used and the enzyme solution was replaced by TE buffer for this purpose. The IC50 values were calculated as the concentration of the compound decreasing the enzymatic activity of the positive control by 50% and are presented as the means and standard deviations of independent repeated experiments.

A-549 lung cancer cells = assay: Antiproliferative assay (crystal violet); assay type: cell-based, human; settings: 72 h exposure, ± standard deviation, n = 2–4, read-out: IC50, antiproliferative effects, A-549
Method: (§1) The antiproliferative effects were determined according to a previously published procedure. A volume of 100 µL of cell suspension of A549 cells, MDA-MB-231, HT-29 or Vero E6 cells was transferred into the wells of a 96-well plates and incubated at 37 °C under 5% CO2 for 72 h. […] The results were calculated as the mean values of three independent experiments, unless stated otherwise.

[2] = tested on: HT-29 colon carcinoma cells; assay: Antiproliferative assay (crystal violet); assay type: cell-based, human; settings: 72 h exposure, ± standard deviation, n = 2–4, read-out: IC50, antiproliferative effects, HT-29
Method: as §1

[3] = tested on: MDA-MB-231 breast cancer cells; assay: Antiproliferative assay (crystal violet); assay type: cell-based, human; settings: 96 h exposure, ± standard deviation, n = 2–4, read-out: IC50, antiproliferative effects, MDA-MB-231
Method: as §1

[4] = tested on: Vero E6 non-tumorigenic epithelial kidney cells; assay: Antiproliferative assay (crystal violet); assay type: cell-based, African green monkey; settings: 72 h exposure, ± standard deviation, n = 2–4, read-out: IC50, antiproliferative effects, Vero E6
Method: as §1

[5] = tested on: Acinetobacter baumannii (DSM 30007, ATCC 19606); assay: MIC broth dilution, aerobic bacteria; assay type: cell-based; settings: 20 h at 37 °C, ± standard error, n ≥ 3
Method: (§2) The following strains were used and maintained at 37 °C in MHB (21 g/L Müller Hinton, pH 7.4) or TSY (30 g/L trypticase soy broth, 3 g/L yeast extract, pH 7.0–7.2) medium. Acinetobacter baumannii (DSM 30007, ATCC 19606) in MHB, Escherichia coli (DSM1116, ATCC 9637) in TSY, Klebsiella pneumoniae (DSM 11678, ATCC33495) in MHB, Pseudomonas aeruginosa PA7 (DSM 24068) in MHB, Enterococcus faecium (DSM 20477, ATCC 19434) in TSY, Staphylococcus aureus MRSA (DSM 11822, ICB 25701) in TSY). Minimum inhibitory concentration (MIC) values were determined following a standardized protocol in broth dilution assays. […] Starting inocula of 2–8 × 10^5 colony-forming units per ml in MHB or TSY media at 37 °C were used, and serial dilutions were carried out in 384-well microtiter plates in duplicate. […] The MIC values for the tested compounds were determined in three independent experiments by a curve-fitting procedure using the GraphPad Prism software (Graphpad Software, Inc.).

[6] = tested on: Enterococcus faecium (DSM 20477, ATCC 19434); assay: MIC broth dilution, aerobic bacteria; assay type: cell-based; settings: 20 h at 37 °C, ± standard error; for MIC, E. faecium: n ≥ 3; for MIC: n ≥ 3, read-out: MIC, E. faecium
Method: as §2

[7] = tested on: Escherichia coli (DSM1116, ATCC 9637); assay: MIC broth dilution, aerobic bacteria; assay type: cell-based; settings: 20 h at 37 °C, ± standard error, n ≥ 3
Method: as §2

[8] = tested on: Klebsiella pneumoniae (DSM 11678, ATCC33495); assay: MIC broth dilution, aerobic bacteria; assay type: cell-based; settings: 20 h at 37 °C, ± standard error, n ≥ 3, read-out: MIC, K. pneumoniae
Method: as §2

[9] = tested on: Pseudomonas aeruginosa PA7 (DSM 24068); assay: MIC broth dilution, aerobic bacteria; assay type: cell-based; settings: ± standard error, n ≥ 3, read-out: MIC, P.aeruginosa
Method: as §2

[10] = tested on: Staphylococcus aureus MRSA (DSM 11822, ICB 25701); assay: MIC broth dilution, aerobic bacteria; assay type: cell-based; settings: 20 h at 37 °C, ± standard error, n ≥ 3
Method: as §2

[11] = tested on: aerobic Gram-positive and Gram-negative pathogenic bacteria strains; assay: MIC, summary over the panel of aerobic bacteria; assay type: cell-based; settings: for MIC values against all bacteria strains: all strains of the panel
Method: as §2

[12] = tested on: C. difficile strain 1296^ T (DSM 1296), metronidazole-sensitive; assay: Antibacterial effects against C. difficile (anaerobic growth curves, OD600); assay type: cell-based, Clostridioides difficile
Method: (§3) (provided by Ulrich Nübel, DSMZ Braunschweig) were maintained in prereduced BHIS medium (37 g/L BHI, oxoid, 5% yeast extract, 1% L-cysteine) in a Coy-Laboratories anaerobic chamber (85% N2, 10% CO2, 5% H2) at 37 °C. Freshly prepared cultures were incubated until the exponential growth phase (OD600 = 0.2–0.4) and were adjusted to 1 × 10^6 cfu/mL before inoculation. The test compounds were dissolved in DMSO and by two-fold dilution steps concentrations in the range from 200 µM to 0.39 µM in BIHS medium were obtained. The solutions (100µL) were added to 100 µL of a diluted C. difficile culture (total volume: 200 µL in BIHS, 5 × 10^5 C. difficile, 100–0.195 µM test compound per well). The OD600-values over a period of 48 h were measured with a LogPhase 600 4-plate reader (BioTek) and compared with blank BHIS.

[13] = tested on: C. difficile strain IB136 (NCTC 14385), metronidazole-resistant; assay: as above; assay type: cell-based, Clostridioides difficile
Method: as §3

[14] = tested on: C. difficile strain VPI10463 (ATCC 43255), metronidazole-sensitive; assay: as above; assay type: cell-based, Clostridioides difficile
Method: as §3

[15] = tested on: A-549, HT-29, MDA-MB-231 and Vero E6 cells; assay: Antiproliferative assay, summary over all cell lines; assay type: cell-based; settings: for IC50: all four cell lines, for 2c except MDA-MB-231, read-out: IC50 values, antiproliferative effects, all cell lines
Method: as §1

T1 sequence (P0A9P4 whole entry): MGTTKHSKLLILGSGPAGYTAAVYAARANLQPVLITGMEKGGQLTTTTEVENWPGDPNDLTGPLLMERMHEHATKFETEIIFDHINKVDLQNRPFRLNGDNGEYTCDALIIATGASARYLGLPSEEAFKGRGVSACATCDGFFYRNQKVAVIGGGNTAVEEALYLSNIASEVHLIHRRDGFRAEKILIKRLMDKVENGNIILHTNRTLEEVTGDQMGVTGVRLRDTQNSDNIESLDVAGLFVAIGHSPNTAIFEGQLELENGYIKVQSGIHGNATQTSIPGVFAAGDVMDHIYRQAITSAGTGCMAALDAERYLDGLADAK

| SMILES | IC50 [1] [µM] | IC50 (A-549 lung cancer cells) [µM] | IC50 [2] [µM] | IC50 [3] [µM] | IC50 [4] [µM] | MIC, E. faecium [6] [µM] | MIC [7] [µM] | MIC [8] [µM] | MIC ([9]; 20 h at 37 °C) [µM] | activity against Gram-negative strains (in words) ([11]; aerobic conditions) | MIC values against all bacteria strains ([11]; aerobic conditions) | MIC [5] [µM] | MIC, E. coli [7] [µM] | MIC, MRSA [10] [µM] | IC50 [15] [µM] | also measured |
| --- | --- | --- | --- | --- | --- | --- | --- | --- | --- | --- | --- | --- | --- | --- | --- | --- |
| CC(=O)OC[C@H]1O[C@@H]([S-])[C@H](OC(C)=O)[C@@H](OC(C)=O)[C@@H]1OC(C)=O.CCP(CC)CC.[Au+] [Auranofin, reference compound] | 0.21 ± 0.03 | 4.2 ± 0.6 | 10.5 ± 4.8 | 1.2 ± 0.3 | 2.6 ± 0.1 | 0.6 ± 0.2 | > 30 | > 30 | > 30 | lower active or inactive | – | – | – | – | – | MIC, A. baumannii [5]: 7.8 ± 7.1 µM; MIC [10]: < 0.2 µM; activity against Gram-positive strains (in words) ([11]; aerobic conditions): strong activity |
| Cc1ncc([N+](=O)[O-])n1CCO [Metronidazole, reference compound] | – | – | – | – | – | – | – | – | – | – | not active | – | – | – | – | IC50 (A-549 lung cancer cells; Homo sapiens, A549): > 100 µM; IC50 ([2]; Homo sapiens, HT-29): > 100 µM; IC50 ([3]; Homo sapiens, MDA-MB-231): > 100 µM; IC50 ([4]; Chlorocebus sabaeus, Vero C1008): > 100 µM; MIC ([5]; Acinetobacter baumannii): > 350 µM; MIC ([6]; Enterococcus faecium): > 350 µM; MIC ([7]; Escherichia coli): > 350 µM; MIC ([8]; Klebsiella pneumoniae): > 350 µM; MIC ([9]; Pseudomonas aeruginosa, DSM24068, 20 h at 37 °C): > 350 µM; MIC ([10]; Staphylococcus aureus): > 350 µM; antibacterial effect at 6.25 µM ([12]; strain 1296T, 6.25 µM, recovery of growth after extended exposure): effective inhibitors; concentration leading to a complete block of bacterial growth without recovery ([13]; metronidazole-resistant strain IB136, up to 100 µM, 48 h): no dosage of the drug could terminate the proliferation; antibacterial effect at 6.25 µM ([13]; resistant strain IB136, 6.25 µM): completely inactive; antibacterial effect at 6.25 µM ([14]; strain VPI10463, 6.25 µM, recovery of growth after extended exposure): effective inhibitors; IC50 ([15]; Homo sapiens): > 100 µM |
| Cn1[c](=[Au][Cl])n(CC(=O)O)c2ccccc21 [Compound 2b] | 0.364 ± 0.103 | > 100 | > 80 | 65.7 ± 8.2 | > 100 | – | – | > 151.4 | > 151.4 | – | > 100 µM | > 151.4 | 151.4 ± 0.0 | 151.4 ± 0.0 | > 60 | MIC [6]: > 151.4 µM; antibacterial effect, dosages from 0.2 to 100 µM ([12]; strain 1296T (Figure S1)): inactive; antibacterial effect, dosages from 0.2 to 100 µM ([13]; strain IB136 (Figure S3)): inactive; antibacterial effect, dosages from 0.2 to 100 µM ([14]; strain VPI10463 (Figure S2)): inactive |
| CCOC(=O)Cn1[c]([Au-][Cl])[n+](C)c2ccccc21 [Compound 2a, Chlorido-(1-(2-ethoxy-2-oxoethyl)-3-methylbenzimidazol-2-ylidene)gold(I)] | – | 26.1 ± 3.7 | 19.9 ± 5.1 | 9.6 ± 2.7 | 25.8 ± 4.6 | – | – | – | – | – | – | – | – | – | 9 to 26 | cytotoxicity of 2a relative to 2c (times stronger) ([15]; in all cases (all cell lines)): 3–4 |
| CCn1[c]([Au-][Cl])[n+](CC)c2cc(C(=O)O)ccc21 [Compound 1b, Chlorido-(1,3-diethyl-5-carboxybenzimidazol-2-ylidene)gold(I)] | 0.297 ± 0.031 | > 75 | 66.3 ± 8.8 | 74.6 ± 1.3 | > 100 | 142.0 ± 0.0 | – | > 142.0 | > 142.0 | – | > 100 µM | > 142.0 | 142.0 ± 0.0 | 142.0 ± 0.0 | > 60 | – |
| CCn1[c](=[Au][Cl])n(CC)c2cc(C(=O)OCCn3c([N+](=O)[O-])cnc3C)ccc21 [Compound 1c, Chlorido-(1,3-diethyl-5-((2-(2-methyl-5-nitroimidazol-1-yl)ethoxy)carbonyl)benzimidazol-2-ylidene)gold(I)] | 0.145 ± 0.038 | > 100 | > 100 | > 100 | > 100 | 44.2 ± 15.3 | > 106.0 | > 106.0 | > 106.0 | inactive | – | > 106.0 | – | 106.0 ± 0.0 | > 60 | MIC values against Gram-positive strains ([11]; MRSA and E. faecium, except for 1c in MRSA): 37 to 44 µM; solubility in organic solvents (Solubility observations): limited solubility in organic solvents |
